Like-named read-outs stand apart in the source and are kept apart here.

The subject of this test is mice of the OF1 strain. The test is described as follows: Hypolipidemic activity: plasma cholesterol and plasma triglycerides in mice fed compound in chow. The conditions noted are these: for change in vivo at 180 mg/kg: Mus musculus, feed or water, 240 h; for hypocholesterolemic activity (in words) / hypotriglyceridemia (in words) / decreased plasma triglycerides by / hypocholesterolemic potency (plasma cholesterol change): 0.1% in chow. The format is in vivo. The protocol:
With the goal of finding new drugs which might be hypolipidemic, the new diphosphonates described in this patent application were administered orally to mice. This rodent species has plasma lipid level relatively close to man (generally greater than 150 mg/dl). For example, in mice receiving a normal diet the plasma cholesterol and triglyceride levels are in the range of 100 mg/dl, whereas for rat the comparative values are close to 50 mg/dl.
In every screening experiment, 30 mice of the OF1 strain weighing 25 to 35 g were divided into 5 groups of 6 animals each. Four groups received the compounds to be tested, or the reference drugs, the fifth group served as control. Compounds were dissolved in diethyl ether, and solution was added to the pelleted food and the ether was evaporated.
All compounds were tested at the final concentration of 0.1% in animal chow, equivalent to a daily intake of about 180 mg/kg. This diet was fed for 10 days, then after an overnight fasting the animals were sacrified by decapitation under ether anesthesia. Blood samples were collected in EDTA containing tubes.
Plasma cholesterol and plasma triglycerides were measured by enzymatic methods (Ames kit No. 6376 and No. 6630).

Setting [1] is: mice, 0.1% in animal chow (about 180 mg/kg daily), 10 days, Table 3, given as change from control, read-out: Cholesterol (% control).
The mark [2] stands for this setting: mice, 0.1% in animal chow (about 180 mg/kg daily), 10 days, Table 3, given as change from control, read-out: Triglycerides (% control).
Setting [3] is: read-out: Cholesterol (% control).
[4] abbreviates: read-out: Triglycerides (% control).

With `CCOC(=O)C(C)(C)Oc1ccc(Cl)cc1` [Clofibrate, reference compound], the change in vivo at 180 mg/kg reads like this: under setting [1], 4%; under setting [2], -5%. For the same compound, the “hypocholesterolemic activity (in words)” value (mice, 10 days) is “less hypocholesterolemic than many of the diphosphonates tested”.

Take `CCOP(=O)(OCC)C(Cc1cc(C)c(O)c(C(C)(C)C)c1)P(=O)(OCC)OCC` [Compound 1, Tetraethyl 2-(3-tertiarybutyl-4-hydroxy-5-methylphenyl)-ethylidene-1,1-diphosphonate]: the change in vivo at 180 mg/kg runs as follows: under setting [3], -2%; under setting [4], -28%.

In the case of `CCOP(=O)(OCC)C(Cc1cc(C(C)C)c(O)c(C(C)C)c1)P(=O)(OCC)OCC` [Compound 2], the change in vivo at 180 mg/kg runs as follows: under setting [3], 6%; under setting [4], -17%.

Regarding `CCOP(=O)(OCC)C(Sc1cc(C(C)(C)C)c(O)c(C(C)(C)C)c1)P(=O)(OCC)OCC` [Compound 5, Tetraethyl 3,5-ditertiary-4-hydroxyphenylthio-methylenediphosphonate], the change in vivo at 180 mg/kg under setting [3] is -22%. In addition, the change in vivo at 180 mg/kg under setting [4] is -24%. For the same compound, for the setting “mice, 10 days”, the “hypocholesterolemic activity (in words)” value was “hypocholesterolemic” and the “hypotriglyceridemia (in words)” value is on record as “significant hypotriglyceridemia”.

With `COP(=O)(OC)C(Cc1cc(C(C)(C)C)c(O)c(C(C)(C)C)c1)P(=O)(OC)OC` [Compound 10, Tetramethyl 2-(3,5-ditertiarybutyl-4-hydroxyphenyl)-ethylidene-1,1-diphosphonate], the change in vivo at 180 mg/kg by setting is: under setting [3], -5%; under setting [4], -19%.

For the compound `CCOP(=O)(OCC)C(Cc1cc2c(cc1Cl)OCO2)P(=O)(OCC)OCC` [Compound 13, Tetraethyl 2-(3,4-methylenedioxy-6-chlorophenyl)-ethylidene-1,1-diphosphonate], the change in vivo at 180 mg/kg was -5% under setting [3] and 38% under setting [4].

For the compound `CCOP(=O)(OCC)C(Cc1cc(C(C)(C)C)c(O)c(C(C)(C)C)c1)P(=O)(N(C)C)N(C)C` (stereo not shown) [Compound 19, Diethyl 1-bis(dimethylamino)phosphinyl-2-(3,5-ditertiarybutyl-4-hydroxyphenyl)ethylphosphonate], the change in vivo at 180 mg/kg was -6% under setting [3] and -44% under setting [4]. Besides, for the setting “mice, 10 days”, the “decreased plasma triglycerides by” value was “more than 44%”.

For `CCOP(=O)(OCC)C(CCCCCCSc1cc(C(C)(C)C)c(O)c(C(C)(C)C)c1)P(=O)(OCC)OCC` [Compound 20, Tetraethyl 7-(3,5-ditertiarybutyl-4-hydroxyphenylthio)-heptylidene-1,1-diphosphonate], the change in vivo at 180 mg/kg is 5% under setting [3] and 13% under setting [4].

In the case of `CCOP(=O)(OCC)C(CC)(Cc1cc(C(C)(C)C)c(O)c(C(C)(C)C)c1)P(=O)(OCC)OCC` [Compound 21, Tetraethyl 1-(3,5-ditertiarybutyl-4-hydroxyphenyl)-butylidene-2,2-diphosphonate], the change in vivo at 180 mg/kg under setting [3] is -16%. In addition, the change in vivo at 180 mg/kg under setting [4] is -28%. Where the note is “mice, 10 days”, the “hypocholesterolemic activity (in words)” value is “hypocholesterolemic” and the “hypotriglyceridemia (in words)” value was “significant hypotriglyceridemia”.

For `CC(C)OP(=O)(OC(C)C)C(Sc1cc(C(C)(C)C)c(O)c(C(C)(C)C)c1)P(=O)(OC(C)C)OC(C)C` [Compound 22], the change in vivo at 180 mg/kg is, setting by setting: under setting [3], -21%; under setting [4], -37%. The “hypocholesterolemic activity (in words)” value (mice, 10 days) was “hypocholesterolemic”. Besides, the “hypotriglyceridemia (in words)” value (mice, 10 days) is given as “significant hypotriglyceridemia”.

Regarding `CCCOP(=O)(OCCC)C(Cc1cc(C(C)(C)C)c(O)c(C(C)(C)C)c1)P(=O)(OCCC)OCCC` [Compound 23], the change in vivo at 180 mg/kg runs as follows: under setting [3], -15%; under setting [4], -33%. For the same compound, the “hypocholesterolemic activity (in words)” value (mice, 10 days) was “hypocholesterolemic”. Further, the “hypotriglyceridemia (in words)” value (mice, 10 days) was “significant hypotriglyceridemia”.

For the compound `CC(C)(C)c1cc(CC(P2(=O)OCCCO2)P2(=O)OCCCO2)cc(C(C)(C)C)c1O` [Compound 24], the change in vivo at 180 mg/kg under setting [1] is -20%. For the same compound, the change in vivo at 180 mg/kg under setting [2] is -71%. For the same compound, where the note is “mice, 10 days”, the “decreased plasma triglycerides by” value is given as “more than 44%”, the “hypocholesterolemic activity (in words)” value is on record as “hypocholesterolemic” and the “hypotriglyceridemia (in words)” value was “significant hypotriglyceridemia”.

For the compound `CCOP(=O)(OCC)C(=Cc1cc(C)c(O)c(C(C)(C)C)c1)P(=O)(OCC)OCC` [Compound 30, Tetraethyl 2-(3-tertiarybutyl-4-hydroxy-5-methylphenyl)-ethenylidene-1,1-diphosphonate], the change in vivo at 180 mg/kg by setting is: under setting [3], 2%; under setting [4], -45%. The “decreased plasma triglycerides by” value (mice, 10 days) is reported as “more than 44%”. For the same compound, for the setting “mice, 10 days”, the “hypotriglyceridemia (in words)” value is listed as “significant hypotriglyceridemia”.

Take `CCOP(=O)(OCC)C(=Cc1cc(C(C)C)c(O)c(C(C)C)c1)P(=O)(OCC)OCC` [Compound 31]: the change in vivo at 180 mg/kg by setting is: under setting [3], 4%; under setting [4], -11%. In addition, the “hypotriglyceridemia (in words)” value (mice, 10 days) was “significant hypotriglyceridemia”.

Regarding `CCOP(=O)(OCC)C(=Cc1cc(C(C)CC)c(O)c(C(C)CC)c1)P(=O)(OCC)OCC` (stereo not shown) [Compound 32], the change in vivo at 180 mg/kg is, setting by setting: under setting [3], 8%; under setting [4], 9%.

Consider `CC(C)OP(=O)(OC(C)C)C(=Cc1cc(C(C)(C)C)c(O)c(C(C)(C)C)c1)P(=O)(OC(C)C)OC(C)C` [Compound 34], for which the change in vivo at 180 mg/kg under setting [1] was -41%. Also, the change in vivo at 180 mg/kg under setting [2] is 11%. Where the note is “mice, 10 days”, the “hypocholesterolemic activity (in words)” value is “hypocholesterolemic” and the “hypocholesterolemic potency (plasma cholesterol change)” value is recorded as -41%.

Take `CCCCOP(=O)(OCCCC)C(=Cc1cc(C(C)(C)C)c(O)c(C(C)(C)C)c1)P(=O)(OCCCC)OCCCC` [Compound 35]: the change in vivo at 180 mg/kg amounted to 0% under setting [1] and 7% under setting [2].

With `CCOP(=O)(OCC)C(=Cc1cc(OC)c(O)c(OC)c1)P(=O)(OCC)OCC` [Compound 37], the change in vivo at 180 mg/kg under setting [3] was -16%. Also, the change in vivo at 180 mg/kg under setting [4] was -70%. In addition, under “mice, 10 days”, the “decreased plasma triglycerides by” value was “more than 44%”, the “hypocholesterolemic activity (in words)” value is on record as “hypocholesterolemic” and the “hypotriglyceridemia (in words)” value is reported as “significant hypotriglyceridemia”.

`CCOP(=O)(OCC)C(=Cc1ccc2c(c1)OCO2)P(=O)(OCC)OCC` [Compound 38, Tetraethyl 2(3,4-methylenedioxyphenyl)-ethenylidene-1,1-diphosphonate]: the change in vivo at 180 mg/kg is -5% under setting [3] and -6% under setting [4].

On to `CCOP(=O)(OCC)C(=Cc1ccc2c(c1)OCCO2)P(=O)(OCC)OCC` [Compound 39], for which the change in vivo at 180 mg/kg runs as follows: under setting [3], 4%; under setting [4], 17%.

As for `CCOP(=O)(OCC)C(=Cc1cc(C(C)(C)C)c(OC(C)=O)c(C(C)(C)C)c1)P(=O)(OCC)OCC` [Compound 41, Tetraethyl 2-(3,5-ditertiarybutyl-4-acetoxyphenyl)-ethenylidene-1,1-diphosphonate], the change in vivo at 180 mg/kg is -3% under setting [3] and 6% under setting [4].

With `CCCCOP(=O)(OCCCC)C(=Cc1cc(C(C)(C)C)c(O)c(C(C)(C)C)c1)P(=O)(OCC)OCC` [Compound 42, Dibutyl diethyl 2-(3,5-ditertiarybutyl-4-hydroxyphenyl)-ethenylidene-1,1-diphosphonate], the change in vivo at 180 mg/kg reads like this: under setting [3], 12%; under setting [4], 1%.

For `CCOP(=O)(OCC)C(=CC=Cc1cc(C(C)(C)C)c(O)c(C(C)(C)C)c1)P(=O)(OCC)OCC` [Compound 43, Tetraethyl 4-(3,5-ditertiarybutyl-4-hydroxyphenyl)-1,3-butadienylidene-1,1-diphosphonate], the change in vivo at 180 mg/kg by setting is: under setting [3], -5%; under setting [4], -14%.

For `CCOP(=O)(OCC)C(=Cc1cc(C(C)(C)C)cc(C(C)(C)C)c1O)P(=O)(OCC)OCC` [Compound 46], the change in vivo at 180 mg/kg reads like this: under setting [3], 1%; under setting [4], -12%.

In the case of `COP(=O)(OC)C(=Cc1cc(C(C)(C)C)c(O)c(C(C)(C)C)c1)P(=O)(OC)OC` [Compound 47], under setting [3], the change in vivo at 180 mg/kg was -31%. In addition, the change in vivo at 180 mg/kg under setting [4] was -45%. Moreover, for the setting “mice, 10 days”, the “decreased plasma triglycerides by” value was “more than 44%”, the “hypocholesterolemic activity (in words)” value was “hypocholesterolemic” and the “hypotriglyceridemia (in words)” value is “significant hypotriglyceridemia”.

For the compound `CCCOP(=O)(OCCC)C(=Cc1cc(C(C)(C)C)c(O)c(C(C)(C)C)c1)P(=O)(OCCC)OCCC` [Compound 48], the change in vivo at 180 mg/kg is, setting by setting: under setting [1], -21%; under setting [2], -36%. The “hypocholesterolemic activity (in words)” value (mice, 10 days) is on record as “hypocholesterolemic”. Moreover, the “hypotriglyceridemia (in words)” value (mice, 10 days) is given as “significant hypotriglyceridemia”.

As to `CC(C)OC(=O)C(C)(C)Oc1ccc(C(=O)c2ccc(Cl)cc2)cc1` [Fenofibrate, reference compound], the change in vivo at 180 mg/kg under setting [1] is -15%. The change in vivo at 180 mg/kg under setting [2] is -2%. Further, where the note is “mice, 10 days”, the “hypocholesterolemic activity (in words)” value was “less hypocholesterolemic than many of the diphosphonates tested” and the “hypocholesterolemic potency (plasma cholesterol change)” value is reported as -15%.

The record behind these values is patent US5128331A, “Method for lowering plasma lipid levels or blood pressure” (priority 1988, dated 1992).
